From article PMC5979327 (International Journal of Molecular Sciences, 2018)

Columns and labels:
[1] = test system: MAO-A; experiment: Post-mortem cerebral MAO-A activity of treated rats (radioassay); assay type: in vivo, rat; details: cerebral cortex, s.c. 3 mg/kg/daily for 5 days, means ± SEM
Procedure: (§1) Following the behavioral study, the rats were sacrificed, and their brains were collected. From each brain, the cerebral cortex and hypothalamus were quickly dissected according to the Glowinski and Iversen method. The samples were immediately frozen in liquid nitrogen and kept at −70 °C until assayed.
(§2) Monoamine oxidase A and B (EC 1.4.3.4; MAO A and B) activities were estimated in cerebral homogenates with radioassays, using serotonin (fine conc. 200 μM) and β-phenylethylamine (fine conc. 20 μM), as well as specific inhibitors—clorgyline and deprenyl (0.3 μM each), respectively.
(§3) The enzyme activities are expressed as pmol/min/mg protein. Protein concentration was analyzed according to Lowry’s method.

[2] = target: T1, human histamine H3 receptor (hH3R) (Homo sapiens, UniProt Q9Y5N1); experiment: biochemical; assay type: binding
T1 construct: expressed in transfected cells; host or cells: HEK293T, transient PEI transfection with pcDNA3.1-hH3R; crude membranes

[3] = target: T2, rat histamine H3 receptor (rH3R) (Rattus norvegicus, UniProt Q9QYN8); experiment: [3H]-Nα-methylhistamine binding (saturation and displacement) to rat H3R in HEK-293T cell membranes
T2 construct: expressed in transfected cells; host or cells: HEK293T, transient PEI transfection with pcDNA3-rH3R; crude membranes

[4] = target: T3, guinea pig H3 receptor (jejunum) (Cavia porcellus, UniProt Q9JI35); experiment: H3 antagonistic activity against H3 agonist-induced inhibition of the electrically evoked contraction of the guinea pig jejunum; assay type: biochemical; details: vs (R)-α-methylhistamine, Schild plot, dihydrogenoxolate salts, read-out: pA2 (sem) (converted)
T3 construct: Whole jejunum segments (2 cm) were prepared and mounted between two platinum electrodes; from tissue; host or cells: guinea pig jejunum (small intestine)
Procedure: All newly synthesized compounds were converted into their dihydrogenoxolates salts and in vitro evaluated as H3 receptor antagonists against H3 agonist-induced inhibition of the electrically evoked contraction of the guinea pig jejunum.
In the first step, all the obtained compounds were tested for their H3 antagonistic effects in vitro, following standard methods, using the electrically contracting guinea pig jejunum.
Male guinea pigs weighing 300–400 g were sacrificed, and a portion of the small intestine, 20–50 cm proximal to the ileocaecal valve (jejunum), was removed and placed in Krebs buffer (composition (mM) NaCl 118; KCl 5.6; MgSO4 1.18; CaCl2 2.5; NaH2PO4 1.28; NaHCO3 25; glucose 5.5; indomethacin (1 × 10^ℒ6mol/L)). Whole jejunum segments (2 cm) were prepared and mounted between two platinum electrodes (4 mm apart) in 20 mL Krebs buffer, continuously gassed with 95% O2:5% CO2, and maintained at 37 °C. the contractions were recorded isotonically under 1.0 g tension with a Hugo Sachs Hebel–Messvorsatz (Tl-2)/HF-modem (Hugo Sachs Elektronik, Hugstetten, Germany) connected to a pen recorder. The equilibration lasted for one hour with washings every 10 min. The muscle segments were then stimulated at a maximum between 15 and 20 Volts, continuously at a frequency of 0.1 Hz for a duration of 0.5 msec, with rectangular wave electrical pulses, delivered by a Grass Stimulator S-88 (Grass Instruments Co., Quincy, MA, USA). […] The antagonists were preincubated for 20 min during the stimulation, before the preparation were challenged with (R)-α-methylhistamine. Antagonist potency was determined by the construction of a Schild plot, using three different concentrations of the antagonist. The potency of an antagonist is expressed by its pA2 value. The pA2 values were compared with those indicating the potency of thioperamide.

[5] = test system: histamine N-methyltransferase (HNMT); experiment: Post-mortem cerebral histamine N-methyltransferase activity of treated rats (radioenzymatic); assay type: in vivo, rat; details: s.c. 3 mg/kg/daily for 5 days, means ± SEM; for HMNT activity, CTX: cerebral cortex; for HMNT activity, HTH: hypothalamus
[6] = test system: rats; experiment: Feeding behavior of rats after repeated subcutaneous administration; assay type: in vivo, rat; details: 3 mg/kg s.c. for 5 days; for amount of consumed food (food intake): versus pre-treatment period
From the text: Finally, compound ADS-003 (1a) was subjected to an in vivo evaluation of its impact on brain neurotransmitter systems. This assessment concerned: • - The effects of the compound on the feeding behavior of rats after its repeated peripheral administration. […] The latter was accomplished by postmortem analyses of the brain tissues of the treated rats.
All animal experimental procedures were in accordance with EU directives and local ethical regulations. Male Wistar rats (260–300 g) were used. The animals were maintained under standard laboratory conditions (liquid and food available ad libitum, 12 h light–dark cycle). For feeding behavior examination, the rats were placed individually in metabolic cages (TecniplastGazzada, Buguggiate, Italy) and kept there throughout the entire test. Pharmacotherapy was preceded by a control period of 4 days aimed to determine the basal feed and water consumptions as well as urine excretion. The rats (n = 8 per group) were randomly given the H3R antagonists ADS-003 or Ciproxifan, the latter serving as a reference compound [40]. Control rats were treated with an equivalent volume of physiological saline. The compounds, dissolved in distilled water with DMSO (7%, v/v), were administered subcutaneously at a dose of 3 mg/kg of body mass for 5 consecutive days, always during the morning hours, following the record of feeding parameters. The dose of ADS-003 had been determined on the basis of a thorough characterization in vitro. The recorded volumes of consumed food are expressed in g or ml per 100 g of body weight or in ml per 24 h, respectively. The final results are given as means, with SEM calculated for each 24 h period, computed from a four-day (before treatment) or a five-day (treatment) monitoring

[7] = test system: MAO-B; experiment: Post-mortem cerebral MAO-B activity of treated rats (radioassay); assay type: in vivo, rat; details: cerebral cortex, s.c. 3 mg/kg/daily for 5 days, means ± SEM
Procedure: as §1, §2, §3

[8] = test system: cerebral amine neurotransmitter concentrations; experiment: Post-mortem brain tissue concentration of histamine, noradrenaline, dopamine and serotonin; assay type: in vivo, rat; details: rats, 3 mg/kg s.c. for 5 days; for histamine concentration in the hypothalamus: not statistically significant
Procedure: as §1
The amine concentrations were expressed as ng/g wet weight (HA) or nmol/g wet weight (DA, NA, 5-HT).

[9] = target: T4, H1-receptor (Cavia porcellus, UniProt P31389); experiment: H1 antagonistic effects in vitro, guinea pig ileum, histamine as competing agonist; assay type: biochemical; details: read-out: pA2 (H1 antagonistic activity) (converted)
T4 construct: from tissue; host or cells: guinea pig ileum
Procedure: The pA2 values were calculated according to Arunlakshana and Schild [34].

[10] = compared with Ciproxifan; cited from earlier work

T3 sequence (Q9JI35 whole entry): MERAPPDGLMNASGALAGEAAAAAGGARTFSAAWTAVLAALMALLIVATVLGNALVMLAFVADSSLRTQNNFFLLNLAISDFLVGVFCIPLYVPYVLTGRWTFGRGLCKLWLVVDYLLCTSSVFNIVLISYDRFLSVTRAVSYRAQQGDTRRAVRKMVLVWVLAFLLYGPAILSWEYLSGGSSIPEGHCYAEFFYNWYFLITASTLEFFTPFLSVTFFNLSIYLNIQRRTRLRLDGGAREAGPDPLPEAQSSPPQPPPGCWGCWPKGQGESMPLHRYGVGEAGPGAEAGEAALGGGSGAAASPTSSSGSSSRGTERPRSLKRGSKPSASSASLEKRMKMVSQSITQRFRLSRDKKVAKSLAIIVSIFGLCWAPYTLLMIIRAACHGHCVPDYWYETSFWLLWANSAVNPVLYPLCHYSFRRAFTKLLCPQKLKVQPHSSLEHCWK
T1 sequence (Q9Y5N1 whole entry): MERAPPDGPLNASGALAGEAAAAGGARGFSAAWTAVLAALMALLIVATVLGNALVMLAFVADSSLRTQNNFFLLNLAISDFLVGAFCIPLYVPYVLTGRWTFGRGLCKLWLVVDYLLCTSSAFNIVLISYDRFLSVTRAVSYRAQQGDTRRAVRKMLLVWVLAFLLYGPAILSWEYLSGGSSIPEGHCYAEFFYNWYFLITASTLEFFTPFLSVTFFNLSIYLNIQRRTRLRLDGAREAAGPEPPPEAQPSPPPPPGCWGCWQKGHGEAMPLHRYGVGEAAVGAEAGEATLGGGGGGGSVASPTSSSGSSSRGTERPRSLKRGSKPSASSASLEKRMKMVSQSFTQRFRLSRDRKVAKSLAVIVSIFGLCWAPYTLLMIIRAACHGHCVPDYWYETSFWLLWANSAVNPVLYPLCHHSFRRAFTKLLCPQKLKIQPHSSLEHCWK
T4 sequence (P31389 whole entry): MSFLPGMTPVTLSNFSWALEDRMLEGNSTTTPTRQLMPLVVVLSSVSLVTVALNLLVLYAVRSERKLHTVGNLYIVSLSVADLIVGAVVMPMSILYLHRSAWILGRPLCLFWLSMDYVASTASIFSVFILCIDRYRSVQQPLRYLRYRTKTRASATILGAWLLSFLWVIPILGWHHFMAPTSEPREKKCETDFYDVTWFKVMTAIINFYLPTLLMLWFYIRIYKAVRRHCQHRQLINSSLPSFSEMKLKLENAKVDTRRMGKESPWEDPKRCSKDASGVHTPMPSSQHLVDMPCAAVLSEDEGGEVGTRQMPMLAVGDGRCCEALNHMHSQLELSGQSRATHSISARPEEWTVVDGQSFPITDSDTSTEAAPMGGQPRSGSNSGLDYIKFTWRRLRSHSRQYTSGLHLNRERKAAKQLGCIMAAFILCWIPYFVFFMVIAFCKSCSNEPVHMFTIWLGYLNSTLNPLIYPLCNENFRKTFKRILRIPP
T2 sequence (Q9QYN8 whole entry): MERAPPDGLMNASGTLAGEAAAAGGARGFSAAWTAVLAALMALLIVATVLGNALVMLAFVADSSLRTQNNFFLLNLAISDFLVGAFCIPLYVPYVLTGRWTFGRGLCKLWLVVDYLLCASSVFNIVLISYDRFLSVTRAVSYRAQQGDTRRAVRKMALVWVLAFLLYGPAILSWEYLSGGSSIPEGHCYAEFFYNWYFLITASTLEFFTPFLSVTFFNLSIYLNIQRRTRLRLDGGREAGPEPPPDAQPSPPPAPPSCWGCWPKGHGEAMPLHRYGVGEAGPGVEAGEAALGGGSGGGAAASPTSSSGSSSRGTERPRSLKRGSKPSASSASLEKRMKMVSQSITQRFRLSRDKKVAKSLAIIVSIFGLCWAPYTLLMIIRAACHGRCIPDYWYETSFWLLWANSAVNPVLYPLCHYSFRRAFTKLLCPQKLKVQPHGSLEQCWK

CCCN(C)CCCCCOC1CCN(Cc2cc3ccccc3o2)CC1 [1a]
MAO-A activity, CTX [1]: 1536 ± 50 pmol/min/mg Protein
Ki [2]: 251 nM
Ki [3]: 12.6 nM
Kb [4]: 5.37 nM
HMNT activity, CTX [5]: 44.41 ± 1.06 pmol/min/mg Protein
HMNT activity, HTH [5]: 41.09 ± 0.80 pmol/min/mg Protein
crossing of the blood–brain barrier (suggested by the food intake results) [6]: crosses the BBB
amount of consumed food (food intake) [6]: statistically significant reduction
MAO-B activity, CTX [7]: 1065 ± 48 pmol/min/mg Protein
histamine levels in the cerebral cortex [8]: no changes
noradrenaline levels in the cerebral cortex [8]: enhanced
histamine concentration in the hypothalamus [8]: tendency to increase

CCCN(C)CCCCCOC1CCN(CCc2cc3ccccc3o2)CC1 [1b, 5-{{1-[2-(1-Benzofuran-2-yl)ethyl]piperidin-4-yl}oxy}-N-methyl-N-propylpentan-1-amine]
Kb [4]: 55 nM
Kb [9]: > 100000 nM

CCCN(C)CCCCCOC1CCN(CCCc2cc3ccccc3o2)CC1 [1c, 5-{{1-[3-(1-Benzofuran-2-yl)propyl]piperidin-4-yl}oxy}-N-methyl-N-propylpentan-1-amine]
Kb [4]: 77.6 nM

CCCN(C)CCCCCOC1CCN(CCc2ccccc2)CC1 [1e, N-Methyl-5-[(1-phenethylpiperidin-4-yl)oxy]-N-propylpentan-1-amine]
Kb [4]: 214 nM

CCCN(C)CCCCCOC1CCN(CCCc2ccccc2)CC1 [1f, N-Methyl-5-{[1-(3-phenylpropyl)piperidin-4-yl]oxy}-N-propylpentan-1-amine]
Kb [4]: 30.9 nM
Kb [9]: > 100000 nM

CCCN(C)CCCCCOCCCN(C)CCc1cc2ccccc2o1 [2b, 5-{3-{[2-(Benzofuran-2-yl)ethyl](methyl)amino}propoxy}-N-methyl-N-propylpentan-1-amine]
Kb [4]: 479 nM

CCCN(C)CCCCCOCCCN(C)CCCc1cc2ccccc2o1 [2c, 5-{3-{[3-(Benzofuran-2-yl)propyl](methyl)amino}propoxy}-N-methyl-N-propylpentan-1-amine]
Kb [4]: 427 nM

CCCN(C)CCCCCOCCCN(C)CCc1ccccc1 [2e, N-Methyl-5-{3-[methyl(phenethyl)amino]propoxy}-N-propylpentan-1-amine]
Kb [4]: 191 nM

CCCN(C)CCCCCOCCCN(C)CCCc1ccccc1 [2f, N-Methyl-5-(3-(methyl(3-phenylpropyl)amino)propoxy)-N-propylpentan-1-amine]
Kb [4]: 162 nM

O=C(c1ccc(OCCCc2cnc[nH]2)cc1)C1CC1 [Ciproxifan, reference compound]
MAO-A activity, CTX [1]: 1654 ± 31 pmol/min/mg Protein
HMNT activity, CTX [5]: 46.90 ± 3.59 pmol/min/mg Protein
HMNT activity, HTH [5]: 51.76 ± 5.67 pmol/min/mg Protein
amount of consumed food (food intake) [6]: statistically significant reduction
MAO-B activity, CTX [7]: 1049 ± 56 pmol/min/mg Protein
histamine levels in the cerebral cortex [8]: no changes
noradrenaline levels in the cerebral cortex [8]: enhanced
histamine concentration in the hypothalamus [8]: tendency to increase

S=C(NC1CCCCC1)N1CCC(c2cnc[nH]2)CC1 [Thioperamide]
bioavailability / brain penetration [10]: lower bioavailability

CNCCc1cnc[nH]1 [[^3H]-N^α-MH, [^3H]-N^α-methylhistamine, reference compound]
Kd ([2]; read-out: KD (saturation binding)): 0.9 ± 0.08 nM
Kd ([3]; rH3R, HEK-293T membranes): 2.72 ± 0.34 nM
